In US12630606B2, “Peptide deficient-MHC class I/chaperone compositions and methods” (priority 2018, dated 2026):
Blank lines part the entries; values can stand above or below the substance they belong to. Where no end group is shown, it is not given here.

Key:
H-2D^d/TAPBPR complex = H-2D^d/TAPBPR complex (Mus musculus, UniProt P01900)
H-2D^d = H-2D^d (Mus musculus, UniProt P01900); conditions: cited from earlier work
H-2L^d/TAPBPR complex = H-2L^d/TAPBPR complex (Mus musculus, UniProt P01897); experiment: SEC TAPBPR binding with LC-MS peptide occupancy; conditions: QL9 with 10 mM Gly-Phe dipeptide
[1] = Nano differential scanning fluorimetry (nanoDSF); type: physicochemical; conditions: FIG. 18B
Procedure: 10 uL of each sample was loaded on the Prometheus NT.48 instrument (NanoTemper) using the high sensitivity capillaries. NanoDSF measurements are performed using a temperature ramp rate of 1° C./min from 25° C. to 95° C. and an LED intensity of 20%. Data is analyzed using the PR Control software (NanoTemper). Melting temperatures (Tm values) correspond to the inflection points of the first derivative of the 330/350 nm fluorescence ratio. Experiments were performed in duplicates and the shaded areas (FIG. 18B) are representative of the error.

Substance: GPGRAFVTI [gP18-I10]
- peptide occupancy in the presence of TAPBPR (H-2D^d/TAPBPR complex): dissociates in the presence of TAPBPR
- increase in the peptide off-rate relative to full-length P18-I10 (H-2D^d): 100 fold

Substance: QLSPFPFDL [QL9, reference compound]
- peptide occupancy in the presence of TAPBPR (H-2L^d/TAPBPR complex): could obtain empty H-2L^d:TAPBPR complexes

Substance: TAPBPR: TAPasin Binding Protein Related chaperone, recombinant luminal domain
- Tm (nanoDSF inflection point) [1]: 52.5 °C

- peptide occupancy in the presence of TAPBPR (H-2L^d/TAPBPR complex): remained bound
Substance: _PNVNIHNF (not fully specified (N-terminus); printed as _PNVNIHNF) [gp29]
